In ChEMBL document CHEMBL1125711, “Flavins as potential antimalarials. 2. 3-Methyl-10-(substituted-phenyl) flavins” (J Med Chem, 1991):

How the values were obtained:
Assay type in all cases: functional
[1] = tested on: Plasmodium vinckei vinckei; assay: Antimalarial activity against Plasmodium vinckei V52 on 30 mg/kg intraperitoneal dose
[2] = tested on: Plasmodium vinckei vinckei; assay: Antimalarial activity against Plasmodium vinckei V52 on 70 mg/kg intraperitoneal dose
[3] = tested on: Plasmodium vinckei vinckei; assay: Increase in mean survival days of Plasmodium inoculated mice (Mus musculus) after 70 mg/Kg intraperitoneal dose
[4] = tested on: Plasmodium vinckei vinckei; assay: Antimalarial activity against Plasmodium vinckei V52 after 20 mg/kg intraperitoneal dose
[5] = tested on: Plasmodium vinckei vinckei; assay: Antimalarial activity against Plasmodium vinckei V52 on 10 mg/kg intraperitoneal dose
[6] = tested on: Mus musculus; assay: Increase in mean survival days was determined in mice after ip administration of 10 mg/kg; conditions: route intraperitoneal
[7] = tested on: Mus musculus; assay: Increase in mean survival days was determined in mice after ip administration of 30 mg/kg; conditions: route intraperitoneal
[8] = tested on: Mus musculus; assay: Increase in mean survival days was determined in mice after ip administration of 20 mg/kg; conditions: route intraperitoneal
[9] = tested on: Mus musculus; assay: Antimalarial activity was evaluated against Plasmodium vinckei vinckei V52 after intraperitoneal administration at dose 40 mg/kg
[10] = tested on: Mus musculus; assay: Antimalarial activity was evaluated against Plasmodium vinckei vinckei V52 after intraperitoneal administration at dose 25 mg/kg
[11] = tested on: Mus musculus; assay: Antimalarial activity was evaluated against Plasmodium vinckei V52 after intraperitoneal administration at dose 70 mg/kg
[12] = species on record: Mus musculus; assay: Effective dose required to obtain a parasitaemia of 40% 48 hours after treatment in mice
[13] = tested on: Mus musculus; assay: Antimalarial activity was evaluated against Plasmodium vinckei V52 after intraperitoneal administration at dose 15 mg/kg
[14] = tested on: Mus musculus; assay: Increase in mean survival days was determined in mice after ip administration of 25 mg/kg; toxic; conditions: route intraperitoneal
[15] = tested on: Mus musculus; assay: Increase in mean survival days was determined in mice after ip administration of 30 mg/kg; toxic; conditions: route intraperitoneal
[16] = tested on: Mus musculus; assay: Antimalarial activity was evaluated against Plasmodium vinckei V52 after intraperitoneal administration at dose 25 mg/kg
[17] = tested on: Mus musculus; assay: Antimalarial activity was evaluated against Plasmodium vinckei V52 after intraperitoneal administration at dose 50 mg/kg
[18] = tested on: Mus musculus; assay: Increase in mean survival days was determined in mice after ip administration of 50 mg/kg; conditions: route intraperitoneal
[19] = tested on: Mus musculus; assay: Increase in mean survival days was determined in mice after ip administration of 15 mg/kg; conditions: route intraperitoneal
[20] = tested on: Mus musculus; assay: Increase in mean survival days was determined in mice after ip administration of 25 mg/kg; conditions: route intraperitoneal
[21] = tested on: Mus musculus; assay: Antimalarial activity was evaluated against Plasmodium vinckei vinckei V52 after intraperitoneal administration at dose 50 mg/kg
[22] = tested on: Mus musculus; assay: Increase in mean survival days was determined in mice after ip administration of 70 mg/kg; toxic; conditions: route intraperitoneal
[23] = tested on: Mus musculus; assay: Antimalarial activity was evaluated against Plasmodium vinckei V52 after intraperitoneal administration at dose 10 mg/kg
[24] = tested on: Mus musculus; assay: Antimalarial activity was evaluated against Plasmodium vinckei V52 after intraperitoneal administration at dose 30 mg/kg
[25] = tested on: Mus musculus; assay: Antimalarial activity was evaluated against Plasmodium vinckei V52 after intraperitoneal administration at dose 60 mg/kg
[26] = tested on: Mus musculus; assay: Increase in mean survival days was determined in mice after ip administration of 40 mg/kg; conditions: route intraperitoneal
[27] = tested on: Mus musculus; assay: Increase in mean survival days was determined in mice after ip administration of 60 mg/kg; conditions: route intraperitoneal

| Compound | Cured [1] [%] | Cured [2] [%] | Mean survival days [3] [days] | Cured [4] [%] | Cured [5] [%] | Mean survival days [6] [days] | Mean survival days [7] [days] | Mean survival days [8] [days] | also measured |
| --- | --- | --- | --- | --- | --- | --- | --- | --- | --- |
| COc1cccc(-n2c3nc(=O)n(C)c(=O)c-3nc3ccccc32)c1 | 0 | 0 | 0 | 0 | 0 | 0 | 0 | 0 | – |
| Cn1c(=O)nc2n(-c3cc(Cl)cc(Cl)c3)c3ccccc3nc-2c1=O | 100 | – | 16.5 | 100 | 100 | – | – | – | Cured [9]: 100%; Cured [10]: 100%; Cured [11]: 60%; ED40 [12]: 40.2 µmol/kg; Cured [13]: 100% |
| Cc1cc(Cl)ccc1-n1c2nc(=O)n(C)c(=O)c-2nc2ccccc21 | 0 | – | – | 0 | 0 | 0 | – | 1.2 | Cured [10]: 0%; Mean survival days [14]: -1.5 days; Mean survival days [15]: -2 days |
| Cc1cccc(-n2c3nc(=O)n(C)c(=O)c-3nc3ccccc32)c1 | 0 | 0 | 0.3 | 0 | 0 | 0.8 | 0 | 0.5 | Cured [16]: 0%; Cured [17]: 0%; Mean survival days [18]: 0.5 days; Mean survival days [19]: 0 days; Cured [13]: 0%; Mean survival days [20]: 0 days |
| Cn1c(=O)nc2n(-c3ccc(Cl)cc3Cl)c3ccccc3nc-2c1=O | 0 | – | – | – | 0 | 1.7 | – | – | Cured [10]: 0%; Mean survival days [14]: -1.2 days; Mean survival days [19]: 0.5 days; Cured [13]: 0%; Mean survival days [15]: -1 days |
| Cn1c(=O)nc2n(-c3ccc(Cl)c(Cl)c3)c3ccccc3nc-2c1=O | – | – | 0 | 0 | 0 | 0 | 0 | – | Cured [21]: 0%; Mean survival days [18]: 0 days; Cured [11]: 0% |
| CSc1ccc(-n2c3nc(=O)n(C)c(=O)c-3nc3ccccc32)cc1 | 0 | 0 | 0 | 0 | 0 | 0.2 | 0.5 | 0.5 | – |
| Cn1c(=O)nc2n(-c3ccc(Cl)c(C(F)(F)F)c3)c3ccccc3nc-2c1=O | 0 | 0 | 0.2 | 0 | 0 | 0 | 0 | 0 | Mean survival days [19]: 0 days; Cured [13]: 0% |
| Cn1c(=O)nc2n(-c3ccc(C(=O)O)cc3)c3ccccc3nc-2c1=O | 0 | 0 | -0.2 | – | 0 | 0 | 0.2 | – | – |
| CCc1cccc(-n2c3nc(=O)n(C)c(=O)c-3nc3ccccc32)c1 | 0 | – | 0.3 | 0 | 0 | – | 0 | 0 | Cured [10]: 0%; Cured [11]: 0%; Mean survival days [19]: 0 days; Mean survival days [20]: 0 days |
| CCCCc1ccc(-n2c3nc(=O)n(C)c(=O)c-3nc3ccccc32)cc1 | 0 | – | 0.5 | 0 | 0 | 0 | 0 | 0 | Cured [21]: 0%; Cured [10]: 0%; Mean survival days [18]: 0 days; Cured [11]: 0%; Mean survival days [19]: 0 days; Cured [13]: 0%; Mean survival days [20]: 0.1 days |
| CSc1cccc(-n2c3nc(=O)n(C)c(=O)c-3nc3ccccc32)c1 | 0 | 0 | 0 | 0 | 0 | 0.2 | 0 | 0 | – |
| Cn1c(=O)nc2n(-c3ccc(F)c(F)c3)c3ccccc3nc-2c1=O | 0 | 0 | – | 0 | 0 | 0 | 0 | -0.5 | Mean survival days [22]: -1 days |
| Cn1c(=O)nc2n(-c3ccc(C#N)cc3)c3ccccc3nc-2c1=O | – | – | 0 | – | – | 0 | 0 | – | Cured [23]: 0%; Cured [11]: 0%; Cured [24]: 0% |
| Cn1c(=O)nc2n(-c3ccc(C(F)(F)F)cc3)c3ccccc3nc-2c1=O | 80 | 100 | – | 0 | 0 | 0 | 2 | 0 | Cured [17]: 100%; Cured [25]: 100%; ED40 [12]: 135 µmol/kg |
| Cn1c(=O)nc2n(-c3ccc(Cl)cc3F)c3ccccc3nc-2c1=O | 0 | – | – | 0 | 0 | 1 | – | 4 | Mean survival days [15]: -2 days |
| CN(C)c1ccc(-n2c3nc(=O)n(C)c(=O)c-3nc3ccccc32)cc1 | – | 0 | 0 | 0 | 0 | 0 | 0 | – | – |
| Cn1c(=O)nc2n(-c3cccc(F)c3)c3ccccc3nc-2c1=O | 0 | 0 | – | 0 | 0 | 0.2 | 0.2 | 0 | Cured [9]: 0%; Cured [16]: 0%; Cured [17]: 20%; Mean survival days [22]: -1 days; Mean survival days [26]: 0.8 days; Mean survival days [18]: 0 days; Mean survival days [19]: 0.2 days; Cured [13]: 0%; Mean survival days [20]: 0 days |
| Cc1ccc(-n2c3nc(=O)n(C)c(=O)c-3nc3ccccc32)cc1 | 0 | – | 0 | – | 0 | 0 | 0.2 | – | Cured [17]: 0%; Mean survival days [18]: 0.3 days; Cured [11]: 0% |
| Cn1c(=O)nc2n(-c3cccc(Cl)c3)c3ccccc3nc-2c1=O | 0 | 100 | – | – | 0 | 0 | 0 | – | Cured [17]: 0%; Mean survival days [18]: 0.4 days; Cured [25]: 50%; Mean survival days [27]: 0.5 days |
| Cc1ccc(-n2c3nc(=O)n(C)c(=O)c-3nc3ccccc32)cc1Cl | – | 0 | 0 | 0 | 0 | 0 | 0 | – | ED40 [12]: 456 µmol/kg |
| Cn1c(=O)nc2n(-c3ccc(O)cc3)c3ccccc3nc-2c1=O | – | 0 | 0 | 0 | 0 | 0 | 0.2 | – | – |
| Cn1c(=O)nc2n(-c3cc(C(F)(F)F)ccc3Cl)c3ccccc3nc-2c1=O | 0 | – | – | 0 | 0 | 0 | – | 0 | Cured [16]: 0%; Mean survival days [14]: 0 days; Mean survival days [19]: 0.2 days; Cured [13]: 0%; Mean survival days [15]: -0.4 days |
| CCc1ccc(-n2c3nc(=O)n(C)c(=O)c-3nc3ccccc32)cc1 | 0 | 0 | -0.4 | 0 | 0 | 0.2 | 0 | 0.3 | ED40 [12]: 281 µmol/kg |
| Cn1c(=O)nc2n(-c3ccccc3Cl)c3ccccc3nc-2c1=O | 0 | 0 | – | – | 0 | 0 | – | – | Mean survival days [22]: -2 days; Mean survival days [15]: -0.3 days |
